Results from the supplement of paper PMC11061612.

How the values were obtained:
[1] = test system: 8305C (Thyroid Gland Carcinoma); assay: Bliss excess, mean over the matrix (fraction); higher = more synergy
Procedure, shortened: (§1)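 Cell lines in DMEM/F12 or RPMI with 10% FBS were plated in 1536-well plates, held 24 hours at 37°C, 5% CO2, then given two-drug dose matrices for 72 hours (DMSO typically 0.2%). Viability was read by CellTiter-Glo 2.0 luminescence and scaled as inhibition from 0 (vehicle wells) to 1 (blank wells). Combination Emax is the second-highest inhibition in the matrix; Bliss excess is observed combination effect minus expected EA + EB − EA·EB, EA and EB being single-agent effects.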

[2] = test system: HDLM-2 (Hodgkin's Lymphoma); assay: as above
Procedure, shortened: as §1

[3] = test system: Hs-633T (Other Solid Carcinomas); assay: as above
Procedure, shortened: as §1

[4] = test system: LU-139 (Small Cell Lung Carcinoma); assay: as above
Procedure, shortened: as §1

[5] = test system: LoVo (Colorectal Carcinoma); assay: as above
Procedure, shortened: as §1

[6] = test system: NB14 (Neuroblastoma); assay: as above
Procedure, shortened: as §1

[7] = test system: NCI-H28 (Mesothelioma); assay: as above
Procedure, shortened: as §1

[8] = test system: RKO (Colorectal Carcinoma); assay: as above
Procedure, shortened: as §1

[9] = test system: SK-OV-3 (Ovarian Carcinoma); assay: as above
Procedure, shortened: as §1

[10] = test system: SUP-T1 (T-Lymphoblastic Leukemia); assay: as above
Procedure, shortened: as §1

[11] = test system: EN (Endometrial Carcinoma); assay: combination Emax (second highest fraction inhibited in the dose matrix, 72 h); higher = more inhibition; extreme values may be limits of the assay
Procedure, shortened: as §1

[12] = test system: HMV-II (Melanoma); assay: as above
Procedure, shortened: as §1

[13] = test system: HO-1-u-1 (Oral Cavity Carcinoma); assay: as above
Procedure, shortened: as §1

[14] = test system: LU-139 (Small Cell Lung Carcinoma); assay: as above
Procedure, shortened: as §1

[15] = test system: Mewo (Melanoma); assay: as above
Procedure, shortened: as §1

[16] = test system: NCI-H2461 (Mesothelioma); assay: as above
Procedure, shortened: as §1

[17] = test system: RKO (Colorectal Carcinoma); assay: as above
Procedure, shortened: as §1

[18] = test system: SH-4 (Melanoma); assay: as above
Procedure, shortened: as §1

[19] = test system: SU-DHL-6 (B-Cell Non-Hodgkin's Lymphoma); assay: as above
Procedure, shortened: as §1

[20] = test system: SW1271 (Small Cell Lung Carcinoma); assay: as above
Procedure, shortened: as §1
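Throughout, for Bliss excess, mean over the matrix: after 72 h of two-drug dosing.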

Compound | Bliss excess [1] | Bliss excess [2] | Bliss excess [3] | Bliss excess [4] | Bliss excess [5] | Bliss excess [6] | Bliss excess [7] | Bliss excess [8] | Bliss excess [9] | Bliss excess [10] | combination Emax [11] | combination Emax [12] | combination Emax [13] | combination Emax [14] | combination Emax [15] | combination Emax [16] | combination Emax [17] | combination Emax [18] | combination Emax [19] | combination Emax [20]
O=C(c1cc(Cc2n[nH]c(=O)c3ccccc23)ccc1F)N1CCN(C(=O)C2CC2)CC1 [Olaparib] + COc1nnc2ccc(N3CCC(c4ccc(OCCN5CCN(C)C(=O)[C@H]5C)cc4)CC3)nn12 [AZD5153] (first compound max 10 µM, 7x7, partner max 1 µM) | -0.0634 | -0.0334 | 0.0223 | -0.0194 | -0.0338 | -0.004 | -0.0529 | -0.0893 | -0.0296 | -0.0512 | 0.347 | 0.474 | 0.454 | 0.896 | 0.417 | 0.42 | 0.672 | 0.514 | 0.917 | 0.573
O=C(c1cc(Cc2n[nH]c(=O)c3ccccc23)ccc1F)N1CCN(C(=O)C2CC2)CC1 [Olaparib] + Cc1c2c(nn1C)CSCc1cc(n(C)n1)CSc1cc(c3ccccc3c1)OCCCc1c(C(=O)O)n(C)c3c-2c(Cl)ccc13 [AZD5991] (first compound max 10 µM, 7x7, partner max 1 µM) | -0.0391 | -0.0194 | -0.0037 | -0.0263 | -0.0591 | -0.0183 | -0.0349 | -0.0205 | -0.06 | -0.0286 | 0.476 | 0.0925 | 0.239 | 0.132 | 0.161 | 0.127 | 0.137 | 0.155 | 1 | 0.131
N#Cc1cnc(Nc2cc(NC[C@H]3CNCCO3)c(C(F)(F)F)cn2)cn1 [SRA737] + C=CCn1c(=O)c2cnc(Nc3ccc(N4CCN(C)CC4)cc3)nc2n1-c1cccc(C(C)(C)O)n1 [AZD1775] (first compound max 10 µM, partner max 1 µM) | 0.0356 | -0.0363 | 0.0888 | -0.0015 | 0.0837 | 0.0644 | 0.0829 | 0.0536 | -0.0357 | -0.0003 | 0.696 | 0.53 | 0.924 | 0.564 | 0.638 | 0.709 | 0.957 | 0.656 | 0.933 | 0.488
N#Cc1cnc(Nc2cc(NC[C@H]3CNCCO3)c(C(F)(F)F)cn2)cn1 [SRA737] + CCc1c2c(nc3ccc(O)cc13)-c1cc3c(c(=O)n1C2)COC(=O)[C@]3(O)CC [SN-38] (first compound max 10 µM, 7x7, partner max 0.3 µM) | -0.0419 | -0.0382 | -0.0402 | -0.0305 | -0.0227 | -0.0148 | -0.104 | -0.0398 | -0.0464 | -0.0989 | 0.678 | 0.546 | 0.924 | 0.747 | 0.679 | 0.638 | 0.925 | 0.518 | 1 | 0.608
N#Cc1cnc(Nc2cc(NC[C@H]3CNCCO3)c(C(F)(F)F)cn2)cn1 [SRA737] + O=c1[nH]cc(F)c(=O)[nH]1 [5-Fluorouracil] (first compound max 10 µM, 7x7, partner max 20 µM) | -0.0326 | 0.0758 | -0.0246 | 0.0169 | 0.0238 | 0.0321 | -0.0043 | 0.0048 | -0.0597 | 0.0112 | 0.483 | 0.303 | 0.667 | 0.356 | 0.38 | 0.526 | 0.656 | 0.383 | 0.748 | 0.156
CC1(C)CCC(CN2CCN(c3ccc(C(=O)NS(=O)(=O)c4ccc(NCC5CCOCC5)c([N+](=O)[O-])c4)c(Oc4cnc5[nH]ccc5c4)c3)CC2)=C(c2ccc(Cl)cc2)C1 [Venetoclax] + CS(=O)(=O)CCNCc1ccc(-c2ccc3ncnc(Nc4ccc(OCc5cccc(F)c5)c(Cl)c4)c3c2)o1 [Lapatinib] (first compound max 1 µM, 7x7, partner max 10 µM) | -0.0112 | 0.0315 | -0.0041 | -0.0061 | -0.0768 | 0.0606 | -0.0426 | -0.0366 | -0.0032 | -0.0249 | 0.288 | 0.519 | 0.673 | 0.19 | 0.176 | 0.268 | 0.325 | 0.0973 | 0.975 | 0.373
